In patent US8821861B2, “Fibrin sealant” (The Board of Trustees of the University of Illinois, priority 2007, dated 2014):
Entries after “also recorded” stand apart in the source; their conditions may differ.

What was measured:
spleen surface wounds = assay: Porcine splenic trauma model of surgical bleeding; format: in vivo, pig
Procedure: In preliminary experiments, the ability of polyP to enhance the performance of a fibrin sealant composed of purified fibrinogen and thrombin was evaluated. The fibrinogen component of the experimental fibrin sealant was pre-mixed with calcium ions and polyP, while control fibrinogen preparations were pre-mixed with calcium ions without polyP. Shallow surface wounds were then made on the surface of the spleen of anesthetized pigs, after which 0.3 mL each of the fibrinogen and thrombin solutions were applied to the wound surface and allowed to react with each other. Including polyP in the fibrinogen solution shortened the time to cessation of bleeding in this model: 9.8±1.0 minutes with polyP, but 12.3±1.0 minutes without polyP (mean±SEM). Adding polyP to the fibrinogen solution also changed the appearance of fibrin clots formed on the wound surfaces.
Young adult pigs weighing 20-35 kg were anesthetized using intramuscular teletamine/zolazepam/glycopyrolate, followed by intubation and maintenance with inhaled isoflurane. A ventral midline laparotomy was performed and the spleen was externalized. Shallow (approximately 1 mm deep) oval surface wounds measuring approximately 3×5 mm were made using a Metzenbaum scissors. […] Time to cessation of bleeding was assessed visually. […]

fibrin fibrils [1] = molecular target: T1, fibrin fibrils (Homo sapiens, UniProt P02671+P02675+P02679); assay: Fibril size determination (relative mass-length ratio from wavelength scan); format: biochemical; settings: 1 mM polyP; 2.6 mg/mL fibrinogen, 3 nM thrombin, 2.5 mM calcium ions
T1 construct: purchased Enzyme Research Laboratories (South Bend, Ind.)
T1 sequence (P02671 20-644 isoform P02671-2 limits assumed): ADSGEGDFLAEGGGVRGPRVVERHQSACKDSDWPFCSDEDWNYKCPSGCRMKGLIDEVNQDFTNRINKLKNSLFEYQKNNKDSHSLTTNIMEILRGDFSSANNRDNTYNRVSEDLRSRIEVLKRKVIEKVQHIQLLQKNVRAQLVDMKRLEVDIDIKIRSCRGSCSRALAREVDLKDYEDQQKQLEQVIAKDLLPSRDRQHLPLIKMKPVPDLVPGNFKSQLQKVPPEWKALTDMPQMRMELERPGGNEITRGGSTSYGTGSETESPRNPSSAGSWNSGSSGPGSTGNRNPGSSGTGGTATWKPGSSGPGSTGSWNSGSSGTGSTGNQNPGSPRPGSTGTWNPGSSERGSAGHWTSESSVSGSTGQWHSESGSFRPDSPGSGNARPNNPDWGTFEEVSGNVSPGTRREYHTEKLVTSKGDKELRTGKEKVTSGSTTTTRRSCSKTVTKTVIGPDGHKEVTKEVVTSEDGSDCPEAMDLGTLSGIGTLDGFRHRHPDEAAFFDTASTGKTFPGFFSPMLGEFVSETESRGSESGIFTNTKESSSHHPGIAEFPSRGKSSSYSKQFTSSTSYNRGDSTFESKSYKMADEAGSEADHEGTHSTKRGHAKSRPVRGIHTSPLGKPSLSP
T1 sequence (P02675 31-491): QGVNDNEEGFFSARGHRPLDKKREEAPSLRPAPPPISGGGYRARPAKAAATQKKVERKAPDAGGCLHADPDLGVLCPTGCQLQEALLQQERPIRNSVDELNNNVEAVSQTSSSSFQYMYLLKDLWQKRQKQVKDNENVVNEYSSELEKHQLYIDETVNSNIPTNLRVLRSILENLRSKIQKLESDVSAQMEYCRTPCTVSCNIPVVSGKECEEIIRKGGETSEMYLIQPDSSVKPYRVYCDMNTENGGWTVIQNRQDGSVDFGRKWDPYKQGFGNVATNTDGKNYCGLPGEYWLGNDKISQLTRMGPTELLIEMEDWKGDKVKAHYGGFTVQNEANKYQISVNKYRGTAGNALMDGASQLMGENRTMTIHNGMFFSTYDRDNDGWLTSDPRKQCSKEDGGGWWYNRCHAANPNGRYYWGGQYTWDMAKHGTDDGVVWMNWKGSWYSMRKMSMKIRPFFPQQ
T1 sequence (P02679 27-437 isoform P02679-2 limits assumed): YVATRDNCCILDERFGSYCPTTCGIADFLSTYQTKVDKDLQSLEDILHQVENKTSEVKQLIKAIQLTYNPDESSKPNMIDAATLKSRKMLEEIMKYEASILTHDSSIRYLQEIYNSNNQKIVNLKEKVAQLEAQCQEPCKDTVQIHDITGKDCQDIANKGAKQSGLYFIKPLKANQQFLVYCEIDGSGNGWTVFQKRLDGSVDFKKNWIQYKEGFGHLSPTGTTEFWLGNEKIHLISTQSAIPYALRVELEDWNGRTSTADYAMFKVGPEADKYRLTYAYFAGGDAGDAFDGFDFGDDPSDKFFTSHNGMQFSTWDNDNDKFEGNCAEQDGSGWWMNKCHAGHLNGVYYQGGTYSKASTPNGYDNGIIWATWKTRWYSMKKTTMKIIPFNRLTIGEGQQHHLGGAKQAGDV
Description: Previous studies of fibrin clot structure have shown that the final optical density of fibrin clots is primarily a function of the thickness of the fibrils formed. It is possible to estimate the mass-length ratios of fibrin fibrils by measuring the optical density of clots at a series of wavelengths of light, using a suitable mathematical analysis of the data. Such analyses of fibrin clots were made by mixing fibrinogen and thrombin in the presence of calcium ions and varying concentrations of polyP, in order to determine the effect of polyP on the mass-length ratio of the fibrils (FIG. 5(A)). […] When fibrin clots formed in the presence of calcium ions and varying polyP concentrations were visualized using scanning electron microscopy, the fibrin fibrils had increased thickness as the polyP concentration increased (FIGS. 5(C-E)).
Relative fibril mass to length ratios were determined using a modification of the method of Carr and Gabriel for clots with high turbidity. Briefly, fibrin clots were allowed to mature for 2 hours after thrombin addition, after which the absorbance was scanned from 400 to 800 nm on a Spectramax microplate reader. A plot of 1/τ*λ^3(y axis) versus 1/λ^2 (x axis) was used to determine the y intercept, the inverse of which is proportional to the mass-length ratio of the fibers. […]

fibrin fibrils [2] = molecular target: T1, fibrin fibrils; assay: Scanning electron microscopy of fibrin clots (fibril thickness); format: biochemical; settings: 2.6 mg/mL fibrinogen, 2.5 mM CaCl2, 3 nM thrombin, without polyP 26.5±0.7 nm
Procedure: Fibrin clots formed as described above for turbidity measurements were allowed to mature for 2 hours after thrombin addition. Clots were washed 4 times in 0.1 M cacodylate, fixed in Karnovsky's gluteraldehyde solution overnight, and then processed by stepwise ethanol gradient, critical point drying, and sputter coating with gold palladium. Clots were observed and photographed in six different representative areas using a scanning electron microscope.

human plasma = settings: previous studies [20]; cited from earlier work
[3] = molecular target: T2, fibrin cross-linking by factor XIIIa (Homo sapiens, UniProt P02671+P02675+P02679); assay: Fibrin cross-link formation (SDS-PAGE); format: biochemical; settings: 37° C., data not shown
T2 construct: changing the rate or extent of fibrin cross-linking by factor XIIIa; purchased Enzyme Research Laboratories (South Bend, Ind.)
T2 sequence (P02671 20-644 isoform P02671-2 limits assumed): T1 sequence (P02671 20-644 isoform P02671-2 limits assumed)
T2 sequence (P02675 31-491): T1 sequence (P02675 31-491)
T2 sequence (P02679 27-437 isoform P02679-2 limits assumed): T1 sequence (P02679 27-437 isoform P02679-2 limits assumed)
Procedure: Rates of a and y cross-link formation were studied in clotting reactions carried out as described for turbidity measurements using purified fibrinogen, except that fibrin clots were formed in polypropylene tubes at 37° C. and reactions were stopped at various times by adding an equal volume of 2×SDS sample buffer (100 mM Tris-HCl, 1 mM dithiothreitol, 4% sodium dodecyl sulfate (SDS), 0.02% bromophenol blue, 20% glycerol, pH 6.8) with immediate boiling at 95° C. for 5 minutes. Samples (10 μL) were then subjected to SDS-PAGE using 7.5% polyacrylamide gels and stained with Gelcode (Pierce, Rockford, Ill.) according to the manufacturer's directions.

[4] = molecular target: T3, fibrin clots formed from purified human fibrinogen and human α thrombin (Homo sapiens, UniProt P02671+P02675+P02679); assay: Fibrin clot turbidity (A405), purified fibrinogen clotted with thrombin in microplates; format: biochemical; settings: for polyP concentration exerting maximal effect on turbidity: 2.6 mg/mL citrate-free fibrinogen, 1 nM thrombin (FIG. 8)
T3 construct: purchased Enzyme Research Laboratories (South Bend, Ind.)
T3 sequence (P02671 20-644 isoform P02671-2 limits assumed): T1 sequence (P02671 20-644 isoform P02671-2 limits assumed)
T3 sequence (P02675 31-491): T1 sequence (P02675 31-491)
T3 sequence (P02679 27-437 isoform P02679-2 limits assumed): T1 sequence (P02679 27-437 isoform P02679-2 limits assumed)
Procedure: The in vitro studies reported here utilize a microplate-based method to evaluate the formation of fibrin clots, which are prepared by mixing together purified fibrinogen and thrombin. Once fibrinogen is cleaved to fibrin, the fibrin monomers spontaneously polymerize to yield a three-dimensional gel, or clot. These fibrin polymers scatter visible light, resulting in increased turbidity which can monitored spectrophotometrically to detect clotting.
Fibrin clots were formed in 96-well polystyrene microplates (Corning Inc., Corning, N.Y.) by first preincubating fibrinogen with polyP in TBS plus the indicated CaCl2 concentrations. (Preincubations of fibrinogen with calcium ions were for 15 minutes unless otherwise stated.) Thrombin in TBS plus the same concentration of CaCl2 was then added to trigger clot formation. Reactant concentrations were typically 2.6 mg/mL fibrinogen, 62.5 pM to 8 nM thrombin, 0 to 8 mM polyP, and 0 to 5 mM CaCl2 in a total volume of 200 μL. In some studies, 0 to 10 U/mL unfractionated heparin or 1 mM iodoacetamide were also included. Clotting was evaluated by monitoring the change in turbidity (A405) for varying times (typically, 1 hour) at room temperature using a Spectramax microplate reader (Molecular Devices Corporation, Sunnyvale, Calif.). […] Final turbidities (A405) of fibrin clots were typically quantified after the clots had matured for 60 minutes.

[5] = molecular target: T4, fibrin clots / human plasmin (Homo sapiens, UniProt P02671+P02675+P02679); assay: Fibrinolysis of fibrin clots by plasmin; format: biochemical; settings: 1 mM polyP, 1 mg/mL fibrinogen, 2.5 mM CaCl2, 8 nM plasmin, 1 nM thrombin; clots without polyP lysed quickly
T4 construct: purchased Enzyme Research Laboratories (South Bend, Ind.)
T4 sequence (P02671 20-644 isoform P02671-2 limits assumed): T1 sequence (P02671 20-644 isoform P02671-2 limits assumed)
T4 sequence (P02675 31-491): T1 sequence (P02675 31-491)
T4 sequence (P02679 27-437 isoform P02679-2 limits assumed): T1 sequence (P02679 27-437 isoform P02679-2 limits assumed)
Procedure: FIG. 6 is a graph of the time course of fibrinolysis of fibrin clots. Fibrinogen (1 mg/mL) was preincubated for 15 minutes in the presence of 2.5 mM CaCl2 with 1 mM polyP (▾) or without polyP (O), after which 8 nM plasmin was added followed immediately by 1 nM thrombin. Fibrin clots were allowed to form for 30 minutes, after which their turbidities were measured. The data are plotted as A405 values normalized to the initial A405 value for each curve.
In these experiments, clots were formed by mixing purified human fibrinogen, human plasmin, and human thrombin in the presence of calcium ions, with or without polyP. Clot lysis was quantified by measuring the decrease in optical density over time (following a 30 minute initial clot formation). […] (FIG. 6)

[6] = molecular target: T3, fibrin clots formed from purified human fibrinogen and human α thrombin; assay: Fibrin clot turbidity (A405), purified fibrinogen clotted with thrombin in microplates; format: biochemical; settings: up to 20 U/mL unfractionated heparin, 500 μM polyP

## Polyphosphate
Spleen surface wounds; fibrin sealant, polyP in the fibrinogen solution, 0.3 mL each of fibrinogen and thrombin solutions on spleen wound, without polyP 12.3±1.0 minutes
  time to cessation of bleeding (mean±SEM): 9.8 ± 1.0 min
Spleen surface wounds; fibrinogen with polyP versus without polyP (FIG. 7)
  appearance of fibrin seals formed on the wound surfaces: more opaque
Fibrin fibrils [1]
  mass-length ratio of fibrin fibrils compared to clots formed in the absence of polyP: more than three times larger
Fibrin fibrils [2]; 100 μM polyP
  mean fibril thickness (±standard error): 33.6±1.0 nm
Fibrin fibrils [2]; 500 μM polyP
  mean fibril thickness (±standard error): 54.2±1.3 nm
Fibrin fibrils [2]; 1 mM polyP
  mean fibril thickness (±standard error): 73.4±1.5 nm
Human plasma
  effect on clotting time of human plasma: shortens the clotting time of human plasma
  effect on clotting time when thrombin was added to plasma: did not shorten clotting times
[3]
  rate of formation of cross-linked fibrin chains: appeared to be the same with or without polyP; also recorded: failed to identify any impact of polyP
[4]; 2 mM Ca2+
  polyP concentration exerting maximal effect on turbidity: 1 mM
[4]; 2.5 mM Ca2+
  polyP concentration exerting maximal effect on turbidity: 1 to 2 mM
[4]; 3 mM Ca2+
  polyP concentration exerting maximal effect on turbidity: 2 to 4 mM
[4]; 5 mM Ca2+
  polyP concentration exerting maximal effect on turbidity: 3 to 8 mM
[4]; expressed as phosphate monomer, 2.6 mg/mL fibrinogen, 8 nM thrombin, 2.5 mM calcium chloride (FIG. 3)
  polyP concentration giving optimal enhancement of final clot turbidity: approximately 1 mM
[4]; in the absence of Ca2+
  effect on turbidity of fibrin clots: did not increase the turbidity of fibrin clots
[4]; mM Ca2+ present, regardless of the amount of thrombin added
  effect on final clot turbidity: markedly increased final clot turbidity
[4]; preactivated factor XIIIa added to the clotting mixtures, data not shown
  effect on fibrin clot turbidity with added factor XIIIa: still increased fibrin clot turbidity
[4]; purified fibrinogen plus thrombin
  effect on thrombin clotting time: lack of effect
[4]; with or without 1 mM iodoacetamide, data not shown
  enhancement of final clot turbidity with factor XIIIa inhibitor: approximately equally well in the presence or absence of iodoacetamide
[5]
  resistance of clots to fibrinolysis: highly resistant to lysis by plasmin

## NC(=O)CI [iodoacetamide, reference compound]
[4]; transglutaminase inhibitor added to clotting mixtures, data not shown
  effect of iodoacetamide on the enhancement of final clot turbidity by polyP: failed to antagonize the enhancement of final clot turbidity by polyP

## heparin [reference compound]
[4]; heparin 0 to 10 units/mL, data not shown
  magnitude of the turbidity increase relative to polyP: markedly lower than that observed with polyP
[4]; heparin examined from 0 to 10 units/mL, data not shown
  effect on fibrin turbidity: increased fibrin turbidity in a dose-dependent fashion
[6]
  effect of added heparin on the polyP effect on turbidity: did not reduce the effect of polyP on turbidity
